Results from US20250223307A1, “MDM2/MDMX DOUBLE-TARGET INHIBITOR COMPOUND, PRODRUG, PHARMACEUTICAL COMPOSITION, AND PREPARATION METHOD THEREFOR AND USE THEREOF” (GLOBAL HEALTH DRUG DISCOVERY INSTITUTE, priority 2022, published 2025).

How the values were obtained:
[1] = test system: Blood cancer cells RS4; 11; experiment: CellTiter Glo test: growth inhibition of cells; format: cell-based; conditions: Homo sapiens, 11 cells, 72 h, cell viability
MDM2 = MDM2 (Homo sapiens, UniProt Q00987); experiment: HTRF test: inhibition of MDM2-p53 protein binding
MDMX = target: T1, MDMX (Homo sapiens, UniProt O15151); experiment: HTRF test: inhibition of MDMX-p53 protein binding
T1 sequence (O15151 2-134): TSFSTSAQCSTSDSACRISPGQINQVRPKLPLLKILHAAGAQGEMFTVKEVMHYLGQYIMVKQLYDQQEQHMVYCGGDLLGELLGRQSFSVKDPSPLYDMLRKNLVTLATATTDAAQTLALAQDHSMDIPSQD

Chain of MDM2 (Q00987 2-138): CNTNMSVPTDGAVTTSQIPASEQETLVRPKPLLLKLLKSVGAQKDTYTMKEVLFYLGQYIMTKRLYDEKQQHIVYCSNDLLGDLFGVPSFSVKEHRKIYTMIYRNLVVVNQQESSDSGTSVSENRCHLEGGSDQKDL

Cc1c(Cl)ccc2c(/C=C3\NC(=O)N([C@@H](CO)c4ccc(C#N)cc4)C3=O)c[nH]c12 [Compound 96, (R,Z)-4-(1-(4-((6-chloro-7-methyl-1H-indol-3-yl)methylene)-2,5-dioxoimidazolidin-1-yl)-2-hydroxyethyl)benzonitrile]
IC50 [1]: ≤ 1000 nM | IC50 (MDM2): < 10 nM | IC50 (MDMX): < 10 nM

O=C1N/C(=C\c2c[nH]c3cc(Cl)ccc23)C(=O)N1[C@H](CO)c1ccc(F)c(F)c1 [Compound 53, (S,Z)-5-((6-chloro-1H-indol-3-yl)methylene)-3-(1-(3,4-difluorophenyl)-2-hydroxyethyl)imidazolidine-2,4-dione]
IC50 [1]: 1000 to 10000 nM | IC50 (MDM2): < 10 nM | IC50 (MDMX): < 10 nM

CSc1c(Cl)ccc2c(/C=C3\NC(=O)N(Cc4ccc(F)c(F)c4)C3=O)c[nH]c12 [Compound 9]
IC50 [1]: > 10000 nM | IC50 (MDM2): 10 to 100 nM | IC50 (MDMX): 10 to 100 nM

N#Cc1ccc(CN2C(=O)N/C(=C\c3c[nH]c4c(OCF)c(Cl)ccc34)C2=O)cc1 [Compound 13, (Z)-4-((4-((6-chloro-7-(fluoromethoxyl)-1H-indol-3-yl)methylene)-2,5-dioxoimidazolidin-1-yl)methyl)benzonitrile]
IC50 [1]: > 10000 nM | IC50 (MDM2): < 10 nM | IC50 (MDMX): 10 to 100 nM

Cc1c(Cl)ccc2c(/C=C3\NC(=O)N(C(C(=O)NCCO)c4ccc(C#N)c(F)c4)C3=O)c[nH]c12 (stereo not drawn) [Compound 67, (Z)-2-(4-((6-chloro-7-methyl-1H-indol-3-yl)methylene)-2,5-dioxoimidazolidin-1-yl)-2-(4-cyano-3-fluorophenyl)-N-(2-hydroxyethyl)acetamide]
IC50 [1]: ≤ 1000 nM | IC50 (MDM2): < 10 nM | IC50 (MDMX): < 10 nM

COc1c(Cl)ccc2c(/C=C3\NC(=O)N(Cc4ccc(F)c(F)c4)C3=O)c[nH]c12 [Compound 8, (Z)-5-((6-chloro-7-methoxyl-1H-indol-3-yl)methylene)-3-(3,4-difluorobenzyl)imidazolidine-2,4-dione]
IC50 [1]: 1000 to 10000 nM | IC50 (MDM2): 10 to 100 nM | IC50 (MDMX): 10 to 100 nM

O=C(NC(CO)CO)C(c1ccc(F)c(F)c1)N1C(=O)N/C(=C\c2c[nH]c3cc(Cl)ccc23)C1=O (stereo not drawn) [Compound 24, (Z)-2-(4-((6-chloro-1H-indol-3-yl)methylene)-2,5-dioxoimidazolidin-1-yl)-2-(3,4-difluorophenyl)-N-(1,3-dihydroxypropan-2-yl)acetamide]
IC50 [1]: 1000 to 10000 nM | IC50 (MDM2): 10 to 100 nM | IC50 (MDMX): 10 to 100 nM

Cc1c(Cl)ccc2c(/C=C3\NC(=O)N(C(C(=O)NCC45CC(O)(C4)C5)c4ccc(F)c(F)c4)C3=O)c[nH]c12 (stereo not drawn) [Compound 68, (Z)-2-(4-((6-chloro-7-methyl-1H-indol-3-yl)methylene)-2,5-dioxoimidazolidin-1-yl)-2-(3,4-difluorophenyl)-N-((3-hydroxylbicyclo[1.1.1]pentan-1-yl)methyl)acetamide]
IC50 [1]: ≤ 1000 nM | IC50 (MDM2): < 10 nM | IC50 (MDMX): < 10 nM

O=C1N/C(=C\c2c[nH]c3cc(Cl)ccc23)C(=O)N1[C@@H](CO)c1ccc(F)c(F)c1 [Compound 54, (R,Z)-5-((6-chloro-1H-indol-3-yl)methylene)-3-(1-(3,4-difluorophenyl)-2-hydroxyethyl)imidazolidine-2,4-dione]
IC50 [1]: ≤ 1000 nM | IC50 (MDM2): 10 to 100 nM | IC50 (MDMX): 10 to 100 nM

N#Cc1ccc(CN2C(=O)N/C(=C\c3c[nH]c4c(F)c(Cl)ccc34)C2=O)c(F)c1F [Compound 34, 4-{[(4Z)-4-[(6-chloro-7-fluoro-1H-indol-3-yl)methylene]-2,5-dioxoimidazolidin-1-yl]methyl}-2,3-difluorobenzonitrile]
IC50 [1]: ≤ 1000 nM | IC50 (MDM2): < 10 nM | IC50 (MDMX): 10 to 100 nM

N#Cc1cc(F)c(CN2C(=O)N/C(=C\c3c[nH]c4c(F)c(Cl)ccc34)C2=O)cc1F [Compound 36, 4-{[(4Z)-4-[(6-chloro-7-fluoro-1H-indol-3-yl)methylene]-2,5-dioxoimidazolidin-1-yl]methyl}-2,5-difluorobenzonitrile]
IC50 [1]: ≤ 1000 nM | IC50 (MDM2): < 10 nM | IC50 (MDMX): 10 to 100 nM

N#Cc1ccc(C(C(=O)NCCO)N2C(=O)N/C(=C\c3c[nH]c4c(F)c(Cl)ccc34)C2=O)cc1F (stereo not drawn) [Compound 41, (Z)-2-(4-((6-chloro-7-fluoro-1H-indol-3-yl)methylene)-2,5-dioxoimidazolidin-1-yl)-2-(4-cyano-3-fluorophenyl)-N-(2-hydroxyethyl)acetamide]
IC50 [1]: ≤ 1000 nM | IC50 (MDM2): < 10 nM | IC50 (MDMX): < 10 nM

O=C1N/C(=C\c2c[nH]c3c(F)c(Cl)ccc23)C(=O)N1Cc1ccc(Cl)cc1F [Compound 98, (Z)-3-(4-chloro-2-fluorobenzyl)-5-((6-chloro-7-fluoro-1H-indol-3-yl)methylene)imidazolidine-2,4-dione]
IC50 [1]: ≤ 1000 nM | IC50 (MDM2): 10 to 100 nM | IC50 (MDMX): > 100 nM

N#Cc1ccc(C(CO)N2C(=O)N/C(=C\c3c[nH]c4c(F)c(Cl)ccc34)C2=O)cc1 (stereo not drawn) [Compound 85, (Z)-4-(1-(4-((6-chloro-7-fluoro-1H-indol-3-yl)methylene)-2,5-dioxoimidazolidin-1-yl)-2-hydroxyethyl)benzonitrile]
IC50 [1]: ≤ 1000 nM | IC50 (MDM2): < 10 nM | IC50 (MDMX): < 10 nM

O=C1N/C(=C\c2c[nH]c3c(F)c(Cl)ccc23)C(=O)N1Cc1ccc(Cl)c(F)c1F [Compound 104, (Z)-3-(4-chloro-2,3-difluorobenzyl)-5-((6-chloro-7-fluoro-1H-indol-3-yl)methylene)imidazolidine-2,4-dione]
IC50 [1]: ≤ 1000 nM | IC50 (MDM2): 10 to 100 nM | IC50 (MDMX): 10 to 100 nM

O=C1N/C(=C\c2c[nH]c3c(F)c(Cl)ccc23)C(=O)N1C(CO)c1ccc(F)cc1 (stereo not drawn) [Compound 84, (Z)-5-((6-chloro-7-fluoro-1H-indol-3-yl)methylene)-3-(1-(4-fluorophenyl)-2-hydroxyethyl)imidazolidine-2,4-dione]
IC50 [1]: ≤ 1000 nM | IC50 (MDM2): < 10 nM | IC50 (MDMX): < 10 nM

N#Cc1ccc([C@H](CO)N2C(=O)N/C(=C\c3c[nH]c4cc(Cl)ccc34)C2=O)cc1 [Compound 49, (R,Z)-4-(1-(4-((6-chloro-1H-indol-3-yl)methylene)-2,5-dioxoimidazolidin-1-yl)-2-hydroxyethyl)benzonitrile]
IC50 [1]: ≤ 1000 nM | IC50 (MDM2): < 10 nM | IC50 (MDMX): 10 to 100 nM

N#Cc1ccc([C@@H](CO)N2C(=O)N/C(=C\c3c[nH]c4cc(Cl)ccc34)C2=O)cc1 [Compound 50, (S,Z)-4-(1-(4-((6-chloro-1H-indol-3-yl)methylene)-2,5-dioxoimidazolidin-1-yl)-2-hydroxyethyl)benzonitrile]
IC50 [1]: ≤ 1000 nM | IC50 (MDM2): 10 to 100 nM | IC50 (MDMX): > 100 nM

O=C1N/C(=C\c2c[nH]c3cc(Cl)ccc23)C(=O)N1C(CO)c1ccc(Cl)c(F)c1 (stereo not drawn) [Compound 79, (Z)-5-((6-chloro-1H-indol-3-yl)methylene)-3-(1-(4-chloro-3-fluorophenyl)-2-hydroxyethyl)imidazolidine-2,4-dione]
IC50 [1]: ≤ 1000 nM | IC50 (MDM2): 10 to 100 nM | IC50 (MDMX): 10 to 100 nM

Cc1c(Cl)ccc2c(/C=C3\NC(=O)N(C(C(=O)NC45CCC(O)(CC4)CC5)c4ccc(F)c(F)c4)C3=O)c[nH]c12 (stereo not drawn) [Compound 66, (Z)-2-(4-((6-chloro-7-methyl-1H-indol-3-yl)methylene)-2,5-dioxoimidazolidin-1-yl)-2-(3,4-difluorophenyl)-N-(4-hydroxylbicyclo[2.2.2]octan-1-yl)acetamide]
IC50 [1]: ≤ 1000 nM | IC50 (MDM2): < 10 nM | IC50 (MDMX): < 10 nM

N#Cc1ccc(CN2C(=O)N/C(=C\c3c[nH]c4cc(Cl)ccc34)C2=O)cc1 [Compound 4, (Z)-4-((4-((6-chloro-1H-indol-3-yl)methylene)-2,5-dioxoimidazolidin-1-yl)methyl)benzonitrile]
IC50 [1]: ≤ 1000 nM | IC50 (MDM2): 10 to 100 nM | IC50 (MDMX): 10 to 100 nM

Cc1c(Cl)ccc2c(/C=C3\NC(=O)N(C(CO)c4ccc(Cl)cc4)C3=O)c[nH]c12 (stereo not drawn) [Compound 70, (Z)-5-((6-chloro-7-methyl-1H-indol-3-yl)methylene)-3-(1-(4-chlorophenyl)-2-hydroxyethyl)imidazolidine-2,4-dione]
IC50 [1]: ≤ 1000 nM | IC50 (MDM2): 10 to 100 nM | IC50 (MDMX): 10 to 100 nM

N#Cc1ccc(C(C(=O)NCCO)N2C(=O)N/C(=C\c3cn(P(=O)(O)O)c4c(F)c(Cl)ccc34)C2=O)cc1F (stereo not drawn) [Compound 56, (Z)-(6-chloro-3-((1-(1-(4-cyano-3-fluorophenyl)-2-((2-hydroxyethyl)amino)-2-oxyethyl)-2,5-dioxoimidazolidin-4-ylene)methyl)-7-fluoro-1H-indol-1-yl)phosphonic acid]
IC50 [1]: 1000 to 10000 nM | IC50 (MDM2): 10 to 100 nM | IC50 (MDMX): 10 to 100 nM

Cc1c(Cl)ccc2c(/C=C3\NC(=O)N(Cc4ccc(C#N)c(F)c4)C3=O)c[nH]c12 [Compound 21, (Z)-4-((4-((6-chloro-7-methyl-1H-indol-3-yl)methylene)-2,5-dioxoimidazolidin-1-yl)methyl)-2-fluorobenzonitrile]
IC50 [1]: ≤ 1000 nM | IC50 (MDM2): 10 to 100 nM | IC50 (MDMX): < 10 nM

O=C(NCCO)C(c1ccc(Cl)cc1)N1C(=O)N/C(=C\c2c[nH]c3cc(Cl)ccc23)C1=O (stereo not drawn) [Compound 62, (Z)-2-(4-((6-chloro-1H-indol-3-yl)methylene)-2,5-dioxoimidazolidin-1-yl)-2-(4-chlorophenyl)-N-(2-hydroxyethyl)acetamide]
IC50 [1]: ≤ 1000 nM | IC50 (MDM2): < 10 nM | IC50 (MDMX): 10 to 100 nM
